In brackets after ≈: the same amount, converted by molar mass. Read-outs that look alike come from different tables or passages of the source.
Legend:
S. aureus MW2 = experiment: Minimal inhibitory concentration, S. aureus MW2; type: cell-based; conditions: 16 hour minimal inhibitory concentration at 37° C., read-out: MIC (μM) S. aureus MW2 (MRSA)
In short: (§1)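 Overnight cultures in LB (TSA for S. aureus) at 37 °C, diluted 1:100 twice, then exposed to twofold serial dilutions of compound from DMSO stock. Plates incubated unshaken 16 h at 37 °C and read at OD600. MIC (µM) is the lowest concentration inhibiting growth.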

A. baumannii 19606 = experiment: Minimal inhibitory concentration, A. baumannii 19606; type: cell-based; conditions: 16 hour minimal inhibitory concentration at 37° C., read-out: MIC (μM) A. baumannii 19606
In short: as §1

E. coli 25922 = experiment: Minimal inhibitory concentration, E. coli 25922; type: cell-based; conditions: 16 hour minimal inhibitory concentration at 37° C., read-out: MIC (μM) E. coli 25922
In short: as §1

S. aureus RN4220 = experiment: Minimal inhibitory concentration, S. aureus RN4220; type: cell-based; conditions: 16 hour minimal inhibitory concentration at 37° C., read-out: MIC (μM) S. aureus RN4220
In short: as §1

E. coli MC4100 = experiment: Minimal inhibitory concentration, E. coli MC4100; type: cell-based; conditions: 16 hour minimal inhibitory concentration at 37° C., read-out: MIC (μM) E. coli MC4100 ara+
In short: as §1

WT E. coli = experiment: Minimal inhibitory concentration in wild-type E. coli; type: cell-based, Escherichia coli; conditions: wild-type E. coli, 37° C., 16 hours, read-out: MIC (μM) in WT E. coli
Description: General Procedure for Determination of Minimal Inhibitory Concentrations
Overnight cultures (5 mL) of bacterial strains were grown in LB media or TSA media (for S. aureus) at 37° C. and with shaking at 220 rpm until saturation. The overnight culture was diluted serially 1:100 (50 μL in 5 mL sterile media) and then 1:100 (250 μL in 25 mL sterile media). The 25 mL of diluted culture was then dispensed to a sterile 96 well plate (Corning #3370). 198 μL of culture were dispensed into row A and 100 μL of this culture were dispensed into rows B-H. Aminocoumarin compound (DMSO stock) were added to the first row and then the row was mixed by pipetting. 100 μL of culture from row A were transferred to row B and the serial dilution continued until the final 100 μL from row H were discarded. The plate was incubated without shaking in a 37° C. for 16 hours and then read by visible light spectrophotometer (Molecular Devices) at 600 nm. The minimal inhibitory concentration (MIC) was determined as the lowest concentration of compound concentration that inhibited the growth of bacteria.

E. cloacae 13047 = experiment: Minimal inhibitory concentration, E. cloacae 13047; type: cell-based; conditions: 16 hour minimal inhibitory concentration at 37° C., read-out: MIC (μM) E. cloacae 13047
In short: as §1

K. pneumoniae 700721 = experiment: Minimal inhibitory concentration, K. pneumoniae 700721; type: cell-based; conditions: 16 hour minimal inhibitory concentration at 37° C., read-out: MIC (μM) K. pneumoniae 700721
In short: as §1

[1] = Staphylococcus aureus, MRSA, 16 h
[2] = Acinetobacter baumannii, 19606, 16 h
[3] = Staphylococcus aureus, RN4220, 16 h

Work on CO[C@@H]1[C@@H](OC(N)=O)[C@@H](O)[C@H](Oc2ccc3c(O)c(NC(=O)c4ccccc4)c(=O)oc3c2C)OC1(C)C [Compound 8] yielded an MIC (S. aureus MW2) of over 100 µM, an MIC (A. baumannii 19606) of over 50 µM and an MIC (E. coli 25922) of over 200 µM. The MIC (S. aureus RN4220) was over 100 µM, the MIC (E. coli MC4100) was over 200 µM and the MIC (WT E. coli) was over 300 µM. The MIC (E. cloacae 13047) was over 100 µM and the MIC (K. pneumoniae 700721) was over 100 µM.

COc1ccc(C(=O)Nc2c(O)c3ccc(O[C@@H]4OC(C)(C)[C@H](OC)[C@@H](OC(N)=O)[C@H]4O)c(C)c3oc2=O)cc1OC [Compound 9] was tested, and the MIC (S. aureus MW2; [1]) was 43 µM (≈ 25.3 µg/mL), the MIC (A. baumannii 19606; [2]) was over 50 µM and the MIC (E. coli 25922; Escherichia coli, 25922, 16 h) was over 200 µM. The MIC (S. aureus RN4220; [3]) was 85 µM (≈ 50 µg/mL), the MIC (E. coli MC4100; Escherichia coli, MC4100, 16 h) was over 200 µM and the MIC (WT E. coli; Escherichia coli) was over 300 µM. The MIC (E. cloacae 13047; Enterobacter cloacae, 13047) was over 100 µM and the MIC (K. pneumoniae 700721; Klebsiella pneumoniae, 700721) was over 100 µM.

COc1cccc(OC)c1C(=O)Nc1c(O)c2ccc(O[C@@H]3OC(C)(C)[C@H](OC)[C@@H](OC(N)=O)[C@H]3O)c(C)c2oc1=O [Compound 10] was tested, and the MIC (S. aureus MW2; [1]) was 85 µM (≈ 50 µg/mL), the MIC (A. baumannii 19606; [2]) was over 50 µM and the MIC (E. coli 25922; Escherichia coli, 25922, 16 h) was over 200 µM. The MIC (S. aureus RN4220; [3]) was over 100 µM, the MIC (E. coli MC4100; Escherichia coli, MC4100, 16 h) was over 200 µM and the MIC (WT E. coli; Escherichia coli) was over 300 µM. The MIC (E. cloacae 13047; Enterobacter cloacae, 13047) was over 100 µM and the MIC (K. pneumoniae 700721; Klebsiella pneumoniae, 700721) was over 100 µM.

In the case of COc1cc(C(=O)Nc2c(O)c3ccc(O[C@@H]4OC(C)(C)[C@H](OC)[C@@H](OC(N)=O)[C@H]4O)c(C)c3oc2=O)cc(OC)c1OC [Compound 11], the MIC (S. aureus MW2; [1]) is reported as over 100 µM, the MIC (A. baumannii 19606; [2]) is reported as over 50 µM and the MIC (E. coli 25922; Escherichia coli, 25922, 16 h) is reported as over 200 µM. It also gave an MIC (S. aureus RN4220; [3]) of over 100 µM, an MIC (E. coli MC4100; Escherichia coli, MC4100, 16 h) of over 200 µM and an MIC (WT E. coli; Escherichia coli) of over 300 µM. It also gave an MIC (E. cloacae 13047; Enterobacter cloacae, 13047) of over 100 µM and an MIC (K. pneumoniae 700721; Klebsiella pneumoniae, 700721) of over 100 µM.

CO[C@@H]1[C@@H](OC(N)=O)[C@@H](O)[C@H](Oc2ccc3c(O)c(NC(=O)C4CC4)c(=O)oc3c2C)OC1(C)C [Compound 13] showed an MIC (S. aureus MW2; [1]) of over 100 µM, an MIC (A. baumannii 19606; [2]) of over 50 µM and an MIC (E. coli 25922; Escherichia coli, 25922, 16 h) of over 200 µM. For the same molecule, the MIC (S. aureus RN4220; [3]) was over 100 µM, the MIC (E. coli MC4100; Escherichia coli, MC4100, 16 h) was over 200 µM and the MIC (WT E. coli; Escherichia coli) was over 300 µM. It also gave an MIC (E. cloacae 13047; Enterobacter cloacae, 13047) of over 100 µM and an MIC (K. pneumoniae 700721; Klebsiella pneumoniae, 700721) of over 100 µM.

In the case of CO[C@@H]1[C@@H](OC(N)=O)[C@@H](O)[C@H](Oc2ccc3c(O)c(NC(=O)C45CC6CC(CC(C6)C4)C5)c(=O)oc3c2C)OC1(C)C [Compound 14], the MIC (S. aureus MW2; [1]) is reported as 21 µM (≈ 12.3 µg/mL), the MIC (A. baumannii 19606; [2]) is reported as over 50 µM and the MIC (E. coli 25922; Escherichia coli, 25922, 16 h) is reported as over 200 µM. For the same molecule, the MIC (S. aureus RN4220; [3]) was 43 µM (≈ 25.2 µg/mL), the MIC (E. coli MC4100; Escherichia coli, MC4100, 16 h) was over 200 µM and the MIC (WT E. coli; Escherichia coli) was over 300 µM. For the same molecule, the MIC (E. cloacae 13047; Enterobacter cloacae, 13047) was over 100 µM and the MIC (K. pneumoniae 700721; Klebsiella pneumoniae, 700721) was over 100 µM.

CO[C@@H]1[C@@H](OC(N)=O)[C@@H](O)[C@H](Oc2ccc3c(O)c(NC(=O)c4ccc[nH]4)c(=O)oc3c2C)OC1(C)C [Compound 15] showed an MIC (S. aureus MW2; [1]) of over 100 µM, an MIC (A. baumannii 19606; [2]) of over 50 µM and an MIC (E. coli 25922; Escherichia coli, 25922, 16 h) of over 200 µM. It also gave an MIC (S. aureus RN4220; [3]) of over 100 µM, an MIC (E. coli MC4100; Escherichia coli, MC4100, 16 h) of over 200 µM and an MIC (WT E. coli; Escherichia coli) of over 300 µM. For the same molecule, the MIC (E. cloacae 13047; Enterobacter cloacae, 13047) was over 100 µM and the MIC (K. pneumoniae 700721; Klebsiella pneumoniae, 700721) was over 100 µM.

CO[C@@H]1[C@@H](OC(N)=O)[C@@H](O)[C@H](Oc2ccc3c(O)c(NC(=O)c4cc5ccccc5[nH]4)c(=O)oc3c2C)OC1(C)C [Compound 16] showed an MIC (S. aureus MW2) of over 100 µM, an MIC (A. baumannii 19606) of over 50 µM and an MIC (E. coli 25922) of over 200 µM. It also gave an MIC (S. aureus RN4220) of over 100 µM, an MIC (E. coli MC4100) of over 200 µM and an MIC (WT E. coli) of over 300 µM. For the same molecule, the MIC (E. cloacae 13047) was over 100 µM and the MIC (K. pneumoniae 700721) was over 100 µM.

Work on CO[C@@H]1[C@@H](OC(N)=O)[C@@H](O)[C@H](Oc2ccc3c(O)c(NC(=O)c4c[nH]c5ccccc45)c(=O)oc3c2C)OC1(C)C [Compound 17] yielded an MIC (S. aureus MW2; [1]) of 22 µM (≈ 12.5 µg/mL), an MIC (A. baumannii 19606; [2]) of over 50 µM and an MIC (E. coli 25922; Escherichia coli, 25922, 16 h) of over 200 µM. The MIC (S. aureus RN4220; [3]) was 44 µM (≈ 25 µg/mL), the MIC (E. coli MC4100; Escherichia coli, MC4100, 16 h) was over 200 µM and the MIC (WT E. coli; Escherichia coli) was over 300 µM. It also gave an MIC (E. cloacae 13047; Enterobacter cloacae, 13047) of over 100 µM and an MIC (K. pneumoniae 700721; Klebsiella pneumoniae, 700721) of over 100 µM.

For CO[C@@H]1[C@@H](OC(N)=O)[C@@H](O)[C@H](Oc2ccc3c(O)c(NC(=O)c4cccc(-c5ccc(C)cc5)c4)c(=O)oc3c2C)OC1(C)C [Compound 20], the MIC (S. aureus MW2) was 3 µM (≈ 1.86 µg/mL), the MIC (A. baumannii 19606) was 40 µM (≈ 24.7 µg/mL) and the MIC (E. coli 25922) was 40 µM (≈ 24.7 µg/mL). For the same molecule, the MIC (S. aureus RN4220) was 2.5 µM (≈ 1.55 µg/mL), the MIC (E. coli MC4100) was 26 µM (≈ 16.1 µg/mL) and the MIC (WT E. coli) was 26 µM (≈ 16.1 µg/mL). The MIC (E. cloacae 13047) was over 100 µM and the MIC (K. pneumoniae 700721) was over 100 µM.

In the case of CO[C@@H]1[C@@H](OC(N)=O)[C@@H](O)[C@H](Oc2ccc3c(O)c(NC(=O)c4cccc(-c5c(C)cccc5C)c4)c(=O)oc3c2C)OC1(C)C [Compound 21], the MIC (S. aureus MW2; [1]) is reported as 10 µM (≈ 6.33 µg/mL), the MIC (A. baumannii 19606; [2]) is reported as over 50 µM and the MIC (E. coli 25922; Escherichia coli, 25922, 16 h) is reported as over 200 µM. The MIC (S. aureus RN4220; [3]) was 10 µM (≈ 6.33 µg/mL), the MIC (E. coli MC4100; Escherichia coli, MC4100, 16 h) was 133 µM (≈ 84.1 µg/mL) and the MIC (WT E. coli; Escherichia coli) was 133 µM (≈ 84.1 µg/mL). It also gave an MIC (E. cloacae 13047; Enterobacter cloacae, 13047) of over 100 µM and an MIC (K. pneumoniae 700721; Klebsiella pneumoniae, 700721) of over 100 µM.

From patent US11713335B2, “Aminocoumarin compounds and methods of their use” (President and Fellows of Harvard College, priority 2018, dated 2023)
